Laboratory results taken from US20140179681A1, “METHODS AND COMPOSITIONS OF TARGETED DRUG DEVELOPMENT” (priority 2010, published 2014).
Counter-ions that a name gives are not always drawn. Like-named read-outs stand apart in the source and are kept apart here. Values belong to the molecule of their own block, whether it stands above or below them.

Legend:
EGFR = target: T1, EGFR (Homo sapiens, UniProt P00533); test: EGFR in-cell Western (ICW) screening protocol (EGFR inhibition assay); type: cell-based; parameters: ICW 1 / ICW 2 / ICW Avg: unit not given here; conditions: for ICW assay: Table 10; for ICW assay / ICW Screen: % Inhibition of EGF dependent EGFR phosphorylation in A431 cells, compound 125 μM in assay; for ICW Avg / ICW 1 / ICW 2: ICW assay; for ICW Avg: average of runs 1 and 2; for ICW 1: run 1; for ICW 2: run 2; for ICW Screen: Table 11
T1 construct: host or cells: A431
How it was run: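 Serum-starved A431 cells (2 h) were pretreated with compound for 4 h at 37° C, then stimulated with EGF (10 ng/ml final, or 6.6 or 12.5 ng/ml in some runs) for 10 min. After formaldehyde fixation, phospho-EGFR (Tyr1173, or Tyr1045 in some runs) and total EGFR were detected by in-cell Western immunostaining.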

[1] = system: epithelial carcinoma A431 cell line; test: MTT Cell Proliferation Assay, A431 cells; type: cell-based; conditions: for MTT Assay IC50(A431/MDBK): ratio in parentheses: ratio MDBK IC50 / A431 IC50 (selectivity)
How it was run: (§1)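 Viability was measured by mitochondrial MTT reduction after cells were exposed to compound for 3 days in reduced-serum medium. Inhibition was calculated per plate against 0.5% DMSO controls.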

MDBK line = test: MTT Cell Proliferation Assay, MDBK cells; type: cell-based, bovine
How it was run: as §1

[2] = Homo sapiens, A-431, 72 h, Table 10, first of x/y(ratio): A431, three day treatment, unit not printed (doses in μM), read-out: MTT assay (first value)
[3] = Bos taurus, MDBK, 72 h, Table 10, second of x/y(ratio): MDBK, three day treatment, unit not printed (doses in μM), read-out: MTT assay (second value)
[4] = Homo sapiens, A-431, first value of 'a/b (c)', taken as A431 cells, read-out: MTT Screen, first value of cell
[5] = Bos taurus, MDBK, second value of 'a/b (c)', taken as MDBK cells, read-out: MTT Screen, second value of cell
[6] = Homo sapiens, A-431, A431 cells, first value of cell, read-out: MTT Assay IC50(A431/MDBK): A431
[7] = Bos taurus, MDBK, MDBK cells, second value of cell, read-out: MTT Assay IC50(A431/MDBK): MDBK

T1 sequence (P00533 25-1210): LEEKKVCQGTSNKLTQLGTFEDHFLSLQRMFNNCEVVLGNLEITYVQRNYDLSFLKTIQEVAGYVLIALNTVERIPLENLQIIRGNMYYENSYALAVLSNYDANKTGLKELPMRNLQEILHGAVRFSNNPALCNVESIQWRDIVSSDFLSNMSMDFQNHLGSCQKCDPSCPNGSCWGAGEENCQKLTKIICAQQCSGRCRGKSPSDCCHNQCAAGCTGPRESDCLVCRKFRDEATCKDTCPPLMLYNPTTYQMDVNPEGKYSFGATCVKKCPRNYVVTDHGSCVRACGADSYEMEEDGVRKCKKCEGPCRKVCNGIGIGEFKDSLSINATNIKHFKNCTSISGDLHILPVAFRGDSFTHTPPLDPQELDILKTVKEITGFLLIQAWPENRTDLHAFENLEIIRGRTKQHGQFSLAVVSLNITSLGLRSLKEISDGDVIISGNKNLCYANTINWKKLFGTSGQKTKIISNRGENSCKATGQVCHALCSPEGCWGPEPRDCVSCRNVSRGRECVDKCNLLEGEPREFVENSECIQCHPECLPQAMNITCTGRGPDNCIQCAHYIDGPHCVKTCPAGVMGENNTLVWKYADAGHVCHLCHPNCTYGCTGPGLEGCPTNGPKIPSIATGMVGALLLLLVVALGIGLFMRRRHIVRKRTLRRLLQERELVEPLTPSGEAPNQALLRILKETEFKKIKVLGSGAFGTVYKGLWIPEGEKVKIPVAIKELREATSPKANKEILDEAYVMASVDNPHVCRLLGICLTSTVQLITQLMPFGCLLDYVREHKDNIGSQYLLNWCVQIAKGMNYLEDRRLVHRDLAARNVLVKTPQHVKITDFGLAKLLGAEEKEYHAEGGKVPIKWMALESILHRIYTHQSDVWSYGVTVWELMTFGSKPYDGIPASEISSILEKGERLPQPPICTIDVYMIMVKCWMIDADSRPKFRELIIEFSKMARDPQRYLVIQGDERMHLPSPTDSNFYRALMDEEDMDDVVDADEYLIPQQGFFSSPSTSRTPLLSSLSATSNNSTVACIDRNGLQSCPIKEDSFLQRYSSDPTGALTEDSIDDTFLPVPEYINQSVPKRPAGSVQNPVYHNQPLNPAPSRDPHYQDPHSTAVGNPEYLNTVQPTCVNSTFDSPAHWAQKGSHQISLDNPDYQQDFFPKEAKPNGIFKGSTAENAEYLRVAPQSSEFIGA

- ICW assay (EGFR): 25.1182
- IC50 [1, 2]: 6.97 µM
Compound: COc1ccccc1NC(=S)Nc1ccc(S(=O)(=O)Nc2ccc(Cl)cc2)cc1 [AD4-12502]
- IC50 (MDBK line; [3]): 5.46 µM

- ICW Screen (ICW Inhibition) (EGFR): 25.956
- IC50 [1, 4]: 19.2 µM
Compound: O=C(COc1ccc(Cl)cc1Cl)NC(=S)Nc1ccc(S(=O)(=O)NC2CCCCC2)cc1 [AD4-12075]
- IC50 (MDBK line; [5]): 40.1 µM

- ICW Screen (ICW Inhibition) (EGFR): 34.399
- IC50 [1, 4]: 15.8 µM
Compound: C=CCN(CC=C)S(=O)(=O)c1ccc(NC(=S)NC(=O)/C=C/c2ccc(OC)cc2)cc1 [AD4-12016]
- IC50 (MDBK line; [5]): 23.5 µM

- ICW assay (EGFR): 44.904
- IC50 [1, 2]: 12 µM
Compound: Cc1cc(C)c(NS(=O)(=O)c2ccc(NC(=S)Nc3ccc(S(C)(=O)=O)cc3)cc2)c(C)c1 [AD4-11427]
- IC50 (MDBK line; [3]): 14.5 µM

- ICW Screen (ICW Inhibition) (EGFR): 41.439
- IC50 [1, 4]: 10.2 µM
- IC50 ([1]; first value of 'a/b (c)', taken as A431 cells, read-out: MTT Screen, first value of cell): 5.76 µM
Compound: CN(c1ccccc1)S(=O)(=O)c1ccc(NC(=S)NC(=O)/C=C/c2ccc(F)cc2)cc1 [AD4-12280]
- IC50 (MDBK line; [5]): 17.7 µM
- IC50 (MDBK line; second value of 'a/b (c)', taken as MDBK cells, read-out: MTT Screen, second value of cell): 21.2 µM

- ICW Avg (EGFR): 33.47
- ICW 1 (EGFR): 29.81
- ICW 2 (EGFR): 37.13
- IC50 [1, 6]: 6.43 µM
- MTT Assay IC50(A431/MDBK): ratio in parentheses [1]: 3.08
Compound: Cc1ccc2nc(Nc3nc(=O)c(Cc4ccccc4)c(C)[nH]3)nc(C)c2c1 [compound 11294]
- IC50 (MDBK line; [7]): 19.8 µM

- ICW Avg (EGFR): 38.74
- ICW 1 (EGFR): 42.24
- ICW 2 (EGFR): 35.23
- IC50 [1, 6]: 42.5 µM
- MTT Assay IC50(A431/MDBK): ratio in parentheses [1]: 1.15
Compound: CCCCCc1c(C)nc(Nc2nc(C)c3cc(CC)ccc3n2)[nH]c1=O [12226 + TFA]
- IC50 (MDBK line; [7]): 49 µM

- ICW assay (EGFR): 49.531
- IC50 [1, 2]: 4.74 µM
Compound: CCC(C)c1ccc(NC(=S)Nc2ccc(S(=O)(=O)Nc3ccccc3)cc2)cc1 (centres unmarked) [AD4-12798]
- IC50 (MDBK line; [3]): 5.69 µM

- ICW assay (EGFR): 80.8965
- IC50 [1, 2]: 6.72 µM
Compound: O=S(=O)(Nc1ccccc1)c1ccc(NC(=S)Nc2cccc(Cl)c2)cc1 [AD4-12842]
- IC50 (MDBK line; [3]): 5.55 µM

- ICW Screen (ICW Inhibition) (EGFR): 27.373
- IC50 [1, 4]: 6.53 µM
Compound: Cc1cc(C)cc(NS(=O)(=O)c2ccc(NC(=S)NC(=O)CC(C)C)cc2)c1 [AD4-12017]
- IC50 (MDBK line; [5]): 5.93 µM

- ICW Screen (EGFR): 43.695
- IC50 ([1]; Homo sapiens, A-431, 72 h, Table 11, first of x/y(ratio): A431, unit not printed (doses in μM), read-out: MTT Screen (first value)): 42.6 µM
Compound: O=c1cc(CN2CCN(Cc3ccccc3)CC2)c2cc3c(cc2o1)OCO3 [AD4-10639]
- MTT Screen (second value) (MDBK line; Table 11, second of x/y(ratio): MDBK, unit not printed (doses in μM)): non-convergent

- ICW Screen (ICW Inhibition) (EGFR): 35.514
- IC50 [1, 4]: 13.9 µM
Compound: CC(C)(C)C(=O)NC(=S)Nc1ccc(S(=O)(=O)NCCc2ccccc2)cc1 [AD4-10613]
- IC50 (MDBK line; [5]): 11.8 µM

- ICW assay (EGFR): 33.3993
- IC50 [1, 2]: 6.98 µM
Compound: COc1ccc(C)cc1NC(=S)Nc1ccc(S(=O)(=O)Nc2ccc(Cl)cc2)cc1 [AD4-12485]
- IC50 (MDBK line; [3]): 7.19 µM

- ICW Screen (EGFR): 39.389
- IC50 ([1]; Homo sapiens, A-431, Table 11, first of x/y(ratio): A431, unit not printed (doses in μM), read-out: MTT Screen (first value)): 16.5 µM
Compound: CCc1cc2c(CN3CCN(c4ccc(OC)cc4)CC3)cc(=O)oc2cc1O [AD4-10171]
- IC50 (MDBK line; Bos taurus, MDBK, Table 11, second of x/y(ratio): MDBK, unit not printed (doses in μM), read-out: MTT Screen (second value)): 21 µM

- ICW Screen (ICW Inhibition) (EGFR): 34.379
- IC50 [1, 4]: 18 µM
Compound: COc1ccc(NS(=O)(=O)c2ccc(NC(=S)NC(=O)COc3ccc(Cl)cc3C)cc2)cc1 [AD4-12196]
- IC50 (MDBK line; [5]): 36.8 µM

- ICW Avg (EGFR): 26.08
- ICW 1 (EGFR): 22.54
- ICW 2 (EGFR): 29.61
- IC50 [1, 6]: 14 µM
- MTT Assay IC50(A431/MDBK): ratio in parentheses [1]: 1.59
Compound: Cc1nc(Nc2nc(=O)cc(-c3ccccc3)[nH]2)nc2c(C)cccc12 [compound 11624]
- IC50 (MDBK line; [7]): 22.4 µM

- ICW Avg (EGFR): 25.22
- ICW 1 (EGFR): 31.51
- ICW 2 (EGFR): 18.94
- IC50 [1, 6]: 49 µM
- MTT Assay IC50(A431/MDBK): ratio in parentheses [1]: 0.71
Compound: COCc1cc(=O)nc(Nc2nc(C)c3cc(C)cc(C)c3n2)[nH]1 [11625 + TFA]
- IC50 (MDBK line; [7]): 34.7 µM

- ICW Screen (ICW Inhibition) (EGFR): 68.754
- IC50 [1, 4]: 11.2 µM
Compound: COc1cc(NS(=O)(=O)c2ccc(NC(=S)NC(=O)/C=C/c3ccc(C(C)C)cc3)cc2)nc(OC)n1 [AD4-11638]
- IC50 (MDBK line; [5]): 14.9 µM
